In brackets after ≈: the same amount, converted by molar mass.
Assays:
[1] = test system: Mycobacterium tuberculosis; assay: microbe, parasite or virus in culture; conditions: H37Rv, 168 h
Description: Antimycobacterial activity against Mycobacterium tuberculosis H37Rv after 7 days by resazurin reduction microplate assay

[2] = Cytotoxicity against African green monkey Vero cells assessed as viability at 10 uM after 72 hrs by MTT assay relative to control; assay type: cell-based; conditions: chlorocebus sabaeus, read-out: Activity
[3] = Cytotoxicity against human HepG2 cells assessed as viability at 10 uM after 72 hrs by MTT assay relative to control; assay type: cell-based; conditions: read-out: Activity
[4] = Intrinsic clearance in human liver S9 fraction at 2 uM by HPLC-MS/MS analysis; assay type: ADME, tissue-based
[5] = Thermodynamic solubility of the compound in 0.1N HCl at pH 1.5 after 24 hrs by HPLC method; assay type: physicochemical; conditions: read-out: Therm_solubility
[6] = Kinetic solubility in PBS at pH 7.4; assay type: physicochemical; conditions: read-out: Kinetic_solubility
[7] = Cytotoxicity against mouse RAW264.7 cells assessed as viability at 10 uM after 72 hrs by MTT assay relative to control; assay type: cell-based; conditions: read-out: Activity
[8] = Cytotoxicity against human HaCaT cells assessed as viability at 10 uM after 72 hrs by MTT assay relative to control; assay type: cell-based; conditions: read-out: Activity
[9] = Kinetic solubility in water at pH 5.8; assay type: physicochemical; conditions: read-out: Kinetic_solubility
[10] = test system: Mycobacterium tuberculosis; assay: microbe, parasite or virus in culture; conditions: CDCT-4 (1105/09), 168 h
Description: Antimycobacterial activity against Mycobacterium tuberculosis CDCT-4 (1105/09) clinical isolate after 7 days by resazurin reduction microplate assay

[11] = Half life in human liver S9 fraction at 2 uM by HPLC-MS/MS analysis; assay type: ADME, tissue-based
[12] = Cytotoxicity against mouse N9 cells assessed as viability at 10 uM after 72 hrs by MTT assay relative to control; assay type: cell-based; conditions: read-out: Activity
[13] = test system: Mycobacterium tuberculosis; assay: microbe, parasite or virus in culture; conditions: PE-003, 168 h
Description: Antimycobacterial activity against Mycobacterium tuberculosis PE-003 clinical isolate after 7 days by resazurin reduction microplate assay

[14] = test system: Mycobacterium tuberculosis; assay: Bactericidal activity against Mycobacterium tuberculosis H37Rv infected in mouse RAW264.7 cells assessed as bacterial colony formation at 5 uM after 5 days (reference value: 4.1 to 4.73 log10CU); assay type: functional
[15] = Thermodynamic solubility of the compound in acetate buffer at pH 4 after 24 hrs by HPLC method; assay type: physicochemical; conditions: read-out: Therm_solubility
[16] = Permeability of the compound at 1 uM […] by PAMPA; assay type: physicochemical; conditions: read-out: permeability
[17] = test system: Mycobacterium tuberculosis; assay type: functional; conditions: H37Rv, 168 h
[18] = test system: Mycobacterium tuberculosis; assay type: functional; conditions: H37Rv, 168 h; remark: listed apart in the source
[19] = test system: Mycobacterium tuberculosis; assay type: functional; conditions: H37Rv, 168 h; remark: listed apart in the source
[20] = test system: Mycobacterium tuberculosis; assay type: functional; conditions: H37Rv, 168 h; remark: listed apart in the source
[21] = test system: Mycobacterium tuberculosis; assay type: functional; conditions: H37Rv, 168 h; remark: listed apart in the source
[22] = test system: Mycobacterium tuberculosis; assay type: functional; conditions: H37Rv, 168 h; remark: listed apart in the source

COc1ccccc1NC(=O)COc1cc(C)nc2ccc(Br)cc12
MIC [1]: 0.78 µM (≈ 0.313 µg/mL)

CCOc1ccc2nc(C)cc(OCC(=O)Nc3ccccc3OC)c2c1
MIC [1]: 1.75 µM (≈ 0.641 µg/mL)

COc1ccc2nc(C)cc(OCC(=O)Nc3ccc4c(c3)CCCC4)c2c1
viability at 72 h, 10 µM [2]: 94%
viability at 72 h, 10 µM [3]: 85%
MIC [1]: 0.05 µM (≈ 0.0188 µg/mL)
CLhep predicted at 2 µM [4]: 15.6 mL/min/kg
solubility thermodynamic at 24 h [5]: 90 µM (≈ 33.9 µg/mL)
solubility kinetic [6]: 1.2 µM (≈ 0.452 µg/mL)
viability at 72 h, 10 µM [7]: 82%
viability at 72 h, 10 µM [8]: 95%
solubility kinetic [9]: 6.6 µM (≈ 2.48 µg/mL)
MIC [10]: 0.11 µM (≈ 0.0414 µg/mL)
half-life at 2 µM [11]: 16.2 min
viability at 72 h, 10 µM [12]: 103%
MIC [13]: 0.008 µM (≈ 0.00301 µg/mL)
Activity [14]: 3.33 log10CFU
solubility thermodynamic at 24 h [15]: 30 µM (≈ 11.3 µg/mL)

COc1ccc2nc(C)cc(OCC(=O)c3ccc4ccccc4c3)c2c1
MIC [1]: 1.75 µM (≈ 0.625 µg/mL)

CCCCc1ccc(NC(=O)COc2cc(C)nc3ccc(OC)cc23)cc1
viability at 72 h, 10 µM [2]: 90%
viability at 72 h, 10 µM [3]: 78%
MIC [1]: 0.1 µM (≈ 0.0378 µg/mL)
CLhep predicted at 2 µM [4]: 16.3 mL/min/kg
solubility thermodynamic at 24 h [5]: 240 µM (≈ 90.8 µg/mL)
solubility kinetic [6]: 2.3 µM (≈ 0.87 µg/mL)
viability at 72 h, 10 µM [7]: 91%
viability at 72 h, 10 µM [8]: 105%
solubility kinetic [9]: 2.2 µM (≈ 0.833 µg/mL)
MIC [10]: < 0.05 µM
half-life at 2 µM [11]: 13.7 min
viability at 72 h, 10 µM [12]: 107%
MIC [13]: 0.008 µM (≈ 0.00303 µg/mL)
Activity [14]: 3.05 log10CFU
solubility thermodynamic at 24 h [15]: 50 µM (≈ 18.9 µg/mL)

CCCc1cc(OCC(=O)Nc2ccccc2OC)c2cc(OC)ccc2n1
MIC [1]: > 26.3 µM

COc1ccc2nc(C)cc(OCC(=O)N3CCCCC3)c2c1
MIC [1]: > 31.8 µM

COc1ccc2nc(C)cc(OCC(=O)N[C@@H]3CCCc4ccccc43)c2c1
MIC [1]: 13.3 µM (≈ 5 µg/mL)

COc1ccc2nc(C(C)C)cc(OCC(=O)Nc3ccccc3OC)c2c1
MIC [1]: > 26.3 µM

COc1ccccc1NC(=O)COc1cc(C)nc2ccc(C(F)(F)F)cc12
MIC [1]: > 25.6 µM

COc1ccc2nc(C)cc(OCC(=O)Nc3ccc(C)cc3)c2c1
viability at 72 h, 10 µM [2]: 95%
viability at 72 h, 10 µM [3]: 80%
MIC [1]: 0.12 µM (≈ 0.0404 µg/mL)
CLhep predicted at 2 µM [4]: 13.5 mL/min/kg
solubility thermodynamic at 24 h [5]: 1200 µM (≈ 404 µg/mL)
solubility kinetic [6]: 17.9 µM (≈ 6.02 µg/mL)
viability at 72 h, 10 µM [7]: 92%
viability at 72 h, 10 µM [8]: 100%
solubility kinetic [9]: 17 µM (≈ 5.72 µg/mL)
MIC [10]: 0.04 µM (≈ 0.0135 µg/mL)
half-life at 2 µM [11]: 25.4 min
Papp at 1 µM [16]: 11.4 ×10⁻⁶ cm/s
viability at 72 h, 10 µM [12]: 106%
MIC [13]: 0.04 µM (≈ 0.0135 µg/mL)
Activity [14]: 3.38 log10CFU
solubility thermodynamic at 24 h [15]: 2100 µM (≈ 706 µg/mL)

COc1ccccc1NC(=O)COc1cc(C)nc2ccc(F)cc12
MIC [1]: 14.7 µM (≈ 5 µg/mL)

COc1ccc2nc(C)cc(NCC(=O)Nc3ccc4ccccc4c3)c2c1
MIC [1]: 6.73 µM (≈ 2.5 µg/mL)

CCCc1ccc(NC(=O)COc2cc(C)nc3ccc(OC)cc23)cc1
MIC [17]: 2.5 ng/mL (≈ 0.00686 µM)
viability at 72 h, 10 µM [2]: 87%
viability at 72 h, 10 µM [3]: 64%
MIC [1]: 0.005 to 0.05 µM (≈ 0.00182 to 0.0182 µg/mL)
CLhep predicted at 2 µM [4]: 12.7 mL/min/kg
solubility thermodynamic at 24 h [5]: 260 µM (≈ 94.8 µg/mL)
MIC [18]: 20 ng/mL (≈ 0.0549 µM)
MIC [19]: 5 ng/mL (≈ 0.0137 µM)
solubility kinetic [6]: 2.4 µM (≈ 0.875 µg/mL)
viability at 72 h, 10 µM [7]: 83%
MIC [20]: 2.5 ng/mL (≈ 0.00686 µM)
viability at 72 h, 10 µM [8]: 86%
solubility kinetic [9]: 3.9 µM (≈ 1.42 µg/mL)
MIC [10]: < 0.05 µM
half-life at 2 µM [11]: 30.2 min
MIC [21]: 2.5 ng/mL (≈ 0.00686 µM)
Papp at 1 µM [16]: 1.3 ×10⁻⁶ cm/s
viability at 72 h, 10 µM [12]: 106%
MIC [13]: 0.005 µM (≈ 0.00182 µg/mL)
Activity [14]: 2.76 log10CFU
MIC [22]: 5 ng/mL (≈ 0.0137 µM)
solubility thermodynamic at 24 h [15]: 90 µM (≈ 32.8 µg/mL)

COc1ccc2nc(C)cc(NCC(=O)Nc3ccccc3OC)c2c1
MIC [1]: > 28.5 µM

COc1ccc2nc(C)cc(OCC(=O)N(C)c3ccccc3OC)c2c1
MIC [1]: > 27.3 µM

Reference: ChEMBL document CHEMBL4002573, “New insights into the SAR and drug combination synergy of 2-(quinolin-4-yloxy)acetamides against Mycobacterium tuberculosis” (Eur J Med Chem, 2017)
